Source: patent publication US20170369444A1, “INHIBITORS OF HISTONE DEMETHYLASES” (Gilead Sciences, Inc., priority 2014, published 2017)

Columns and labels:
Type in all cases: biochemical
KDM4C (JMJD2C) = biological target: T1, KDM4C (JMJD2C) (Homo sapiens, UniProt Q9H3R0); assay: Histone lysine demethylase AlphaLISA assay, KDM4C; details: in vitro enzyme, read-out: KDM4C IC50 (HDME Inhibition)
T1 construct: 1-349; host or cells: E. coli
T1 sequence (Q9H3R0 1-349): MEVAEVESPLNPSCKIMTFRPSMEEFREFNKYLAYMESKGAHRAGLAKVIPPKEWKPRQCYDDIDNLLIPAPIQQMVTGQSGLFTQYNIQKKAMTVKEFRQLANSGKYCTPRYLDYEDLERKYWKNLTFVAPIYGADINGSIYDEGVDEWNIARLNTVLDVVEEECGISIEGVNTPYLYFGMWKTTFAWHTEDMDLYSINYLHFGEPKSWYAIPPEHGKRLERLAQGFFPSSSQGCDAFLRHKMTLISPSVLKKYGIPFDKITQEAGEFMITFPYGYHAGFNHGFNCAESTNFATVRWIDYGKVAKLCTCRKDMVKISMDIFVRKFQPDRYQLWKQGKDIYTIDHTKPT
Procedure: Histone lysine demethylase AlphaLISA assays are performed to determine IC50 values. […] Assays are performed analogously to the protocol described by PerkinElmer (Roy et al. PerkinElmer Technical Note: AlphaLISA #12, April 2011).
Assays are performed analogously to the protocol described by PerkinElmer (Roy et al. PerkinElmer Technical Note: AlphaLISA #12, April 2011).
Enzymes (final assay concentration 0.1-2.5 nM) are dissolved in enzyme buffer and incubated for 10 min before 5 μL is added to 5 μL 3% DMSO solutions of compounds in enzyme buffer, incubated for another 10 minutes, before 5 μL substrate solution is added and the reaction mixture is incubated at room temperature. 10 μL acceptor beads, suspended Epigenetic Buffer (Perkin Elmer AL008) from stock, are added and the suspension is incubated in the dark at room temperature, before 10 μL suspension of streptavidin donor beads (Perkin Elmer 6760002) in Epigenetic Buffer is added. After incubation at room temperature in the dark the plates are read.
Substrate solution: Substrate (final assay concentration 50-200 nM), 50 mM Hepes (pH 7.4-8.0), 0.003% Tween-20, 0.1% BS, 25 μM L-Asc, 10 μM α-KG. Enzyme Buffer: 50 mM Hepes (pH 7.4-8.0), 0.003% Tween-20, 0.1% BSA; 5 μM (NH4)2Fe(SO4)2

KDM2B (FBXL10) = biological target: T2, KDM2B (FBXL10) (Homo sapiens, UniProt Q8NHM5); assay: Histone lysine demethylase AlphaLISA assay, KDM2B; details: in vitro enzyme, read-out: KDM2B IC50 (HDME Inhibition)
T2 construct: 1-650; purchased BPS Bioscience, US; host or cells: Bac (baculovirus/insect cells)
T2 sequence (Q8NHM5 1-650): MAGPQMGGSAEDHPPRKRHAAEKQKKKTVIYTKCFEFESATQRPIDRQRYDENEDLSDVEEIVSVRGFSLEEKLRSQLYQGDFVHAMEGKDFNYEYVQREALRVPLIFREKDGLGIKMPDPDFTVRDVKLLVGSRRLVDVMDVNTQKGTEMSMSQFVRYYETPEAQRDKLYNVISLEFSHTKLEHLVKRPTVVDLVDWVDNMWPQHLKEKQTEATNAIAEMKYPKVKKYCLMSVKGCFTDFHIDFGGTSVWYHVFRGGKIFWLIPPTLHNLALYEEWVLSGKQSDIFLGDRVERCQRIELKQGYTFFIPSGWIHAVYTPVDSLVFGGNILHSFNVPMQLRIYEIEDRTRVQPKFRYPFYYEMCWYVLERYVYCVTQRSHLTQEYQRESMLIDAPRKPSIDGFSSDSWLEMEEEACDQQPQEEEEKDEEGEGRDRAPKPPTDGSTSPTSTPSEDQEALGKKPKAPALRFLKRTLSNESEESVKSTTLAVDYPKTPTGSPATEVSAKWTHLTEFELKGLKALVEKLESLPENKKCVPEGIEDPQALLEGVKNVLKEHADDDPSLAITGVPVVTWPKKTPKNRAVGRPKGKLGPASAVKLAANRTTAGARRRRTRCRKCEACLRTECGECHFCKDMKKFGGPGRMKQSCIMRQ

KDM5B (PLU-1) = biological target: T3, KDM5B (PLU-1) (Homo sapiens, UniProt Q9UGL1); assay: Histone lysine demethylase AlphaLISA assay, KDM5B; details: in vitro enzyme, read-out: KDM5B IC50 (HDME Inhibition)
T3 construct: 1-809; host or cells: E. coli
T3 sequence (Q9UGL1 1-809): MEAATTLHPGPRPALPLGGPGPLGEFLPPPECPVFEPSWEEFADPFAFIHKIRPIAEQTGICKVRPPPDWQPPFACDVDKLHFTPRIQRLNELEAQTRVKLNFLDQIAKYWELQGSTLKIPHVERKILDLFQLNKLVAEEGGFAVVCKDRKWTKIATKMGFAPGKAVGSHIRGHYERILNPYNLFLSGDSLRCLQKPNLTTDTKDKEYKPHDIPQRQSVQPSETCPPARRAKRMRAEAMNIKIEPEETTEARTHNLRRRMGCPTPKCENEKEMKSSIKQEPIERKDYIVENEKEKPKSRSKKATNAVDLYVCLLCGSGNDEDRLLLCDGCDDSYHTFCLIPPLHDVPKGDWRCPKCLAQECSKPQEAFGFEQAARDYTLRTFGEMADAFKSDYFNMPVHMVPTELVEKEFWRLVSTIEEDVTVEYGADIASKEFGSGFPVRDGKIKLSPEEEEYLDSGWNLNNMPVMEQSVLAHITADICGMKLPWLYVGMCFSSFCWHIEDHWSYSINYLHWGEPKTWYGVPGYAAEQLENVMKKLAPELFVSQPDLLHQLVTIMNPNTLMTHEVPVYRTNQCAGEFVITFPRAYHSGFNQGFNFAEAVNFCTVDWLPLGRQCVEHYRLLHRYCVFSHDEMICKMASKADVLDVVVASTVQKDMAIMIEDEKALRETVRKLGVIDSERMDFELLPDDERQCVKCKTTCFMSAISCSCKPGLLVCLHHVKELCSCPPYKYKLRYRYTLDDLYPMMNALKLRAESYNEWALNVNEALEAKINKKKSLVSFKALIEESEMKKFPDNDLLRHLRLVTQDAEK

PHF8 (KDM7) = PHF8 (KDM7) (Homo sapiens, UniProt Q9UPP1); assay: Histone lysine demethylase AlphaLISA assay, PHF8; details: in vitro enzyme, read-out: PHF8 IC50 (HDME Inhibition)
PHF8 (KDM7), sequence (Q9UPP1 whole entry): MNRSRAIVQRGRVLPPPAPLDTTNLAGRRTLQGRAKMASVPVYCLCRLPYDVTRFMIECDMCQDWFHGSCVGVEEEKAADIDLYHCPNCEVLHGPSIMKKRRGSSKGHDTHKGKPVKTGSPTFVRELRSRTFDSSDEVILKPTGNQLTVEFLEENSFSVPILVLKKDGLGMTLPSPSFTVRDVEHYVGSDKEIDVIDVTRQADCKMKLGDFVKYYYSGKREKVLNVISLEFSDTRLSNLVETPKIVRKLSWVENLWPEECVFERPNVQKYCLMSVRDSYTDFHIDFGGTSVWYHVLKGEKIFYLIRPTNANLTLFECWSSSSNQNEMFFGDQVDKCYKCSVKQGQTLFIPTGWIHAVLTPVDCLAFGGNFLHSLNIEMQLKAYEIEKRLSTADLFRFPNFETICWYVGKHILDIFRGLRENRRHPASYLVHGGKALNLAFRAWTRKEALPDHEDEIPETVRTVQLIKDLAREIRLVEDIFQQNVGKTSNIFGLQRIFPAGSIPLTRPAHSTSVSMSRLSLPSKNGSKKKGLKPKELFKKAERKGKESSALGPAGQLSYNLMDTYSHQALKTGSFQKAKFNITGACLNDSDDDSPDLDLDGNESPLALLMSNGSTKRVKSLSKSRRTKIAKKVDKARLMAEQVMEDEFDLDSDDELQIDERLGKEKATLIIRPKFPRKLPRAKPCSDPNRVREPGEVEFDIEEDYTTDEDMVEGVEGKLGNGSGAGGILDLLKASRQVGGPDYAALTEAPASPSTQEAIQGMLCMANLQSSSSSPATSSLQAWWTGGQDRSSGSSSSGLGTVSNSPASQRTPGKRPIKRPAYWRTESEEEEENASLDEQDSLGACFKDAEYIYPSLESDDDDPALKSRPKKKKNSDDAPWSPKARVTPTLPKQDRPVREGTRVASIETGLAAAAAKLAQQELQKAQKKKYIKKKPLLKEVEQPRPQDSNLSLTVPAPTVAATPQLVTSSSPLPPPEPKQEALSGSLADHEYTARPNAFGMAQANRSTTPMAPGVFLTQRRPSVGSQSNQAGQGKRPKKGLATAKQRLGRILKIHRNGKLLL

KDM6A (UTX) = biological target: T4, KDM6A (UTX) (Homo sapiens, UniProt O15550); assay: Histone lysine demethylase AlphaLISA assay, KDM6A; details: in vitro enzyme, read-out: KDM6A IC50 (HDME Inhibition)
T4 construct: 919-1401; host or cells: E. coli
T4 sequence (O15550 919-1401): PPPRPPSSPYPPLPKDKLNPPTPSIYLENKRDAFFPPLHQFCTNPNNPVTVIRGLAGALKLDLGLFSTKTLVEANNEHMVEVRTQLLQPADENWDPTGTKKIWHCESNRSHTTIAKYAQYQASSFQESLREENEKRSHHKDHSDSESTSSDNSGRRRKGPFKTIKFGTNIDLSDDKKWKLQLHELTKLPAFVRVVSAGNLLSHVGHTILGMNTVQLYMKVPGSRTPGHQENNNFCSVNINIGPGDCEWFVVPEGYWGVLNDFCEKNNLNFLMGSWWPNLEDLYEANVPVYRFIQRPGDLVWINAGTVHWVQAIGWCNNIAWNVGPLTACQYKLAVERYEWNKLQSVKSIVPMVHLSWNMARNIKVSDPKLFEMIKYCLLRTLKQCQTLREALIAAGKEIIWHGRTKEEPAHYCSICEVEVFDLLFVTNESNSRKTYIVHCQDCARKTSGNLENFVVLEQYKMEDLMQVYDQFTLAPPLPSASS

Row | SMILES | IC50 (KDM4C (JMJD2C)) [nM] | IC50 (KDM2B (FBXL10)) [nM] | IC50 (KDM5B (PLU-1)) [nM] | IC50 (PHF8 (KDM7)) [nM] | IC50 (KDM6A (UTX)) [nM]
1 | C=CCN(CC=C)C(=O)[C@@H](CCCCN(CCC)C(=O)OC(C)(C)C)NCc1cc(C(=O)O)ccn1 [Compound 4, 2-({[(1R)-1-[bis(prop-2-en-1-yl)carbamoyl]-5-{[(tert-butoxy)carbonyl](propyl)amino}pentyl]amino}methyl)pyridine-4-carboxylic acid] | > 2500 | 250 to 2500 | > 2500 |  | 
2 | C=CCN(CC=C)C(=O)[C@H](CC(=O)NCCCN(C)C)NCc1cc(C(=O)O)ccn1 [Compound 10, 2-({[(1S)-1-[bis(prop-2-en-1-yl)carbamoyl]-2-{[3-(dimethylamino)propyl]carbamoyl}ethyl]amino}methyl)pyridine-4-carboxylic acid] | > 2500 | > 2500 | < 250 |  | 
3 | COCC(=O)Nc1ccccc1CNC(=O)[C@H](CC(C)C)NCc1cc(C(=O)O)ccn1 [Compound 12, 2-({[(1S)-1-({[2-(2-methoxyacetamido)phenyl]methyl}carbamoyl)-3-methylbutyl]amino}methyl)pyridine-4-carboxylic acid] | > 2500 | 250 to 2500 |  | 250 to 2500 | 
4 | C[C@H](N[C@H](C)c1cc(C(=O)O)ccn1)C(=O)NCc1ccc(CO)cc1 [Compound 16, 2-[(1R)-1-{[(1S)-1-({[4-(hydroxymethyl)phenyl]methyl}carbamoyl)ethyl]amino}ethyl] pyridine-4-carboxylic acid] | > 2500 | 250 to 2500 |  |  | > 2500
5 | CC(C)(C)OC(=O)NCCCC[C@@H](CO)NCc1cc(C(=O)O)ccn1 [Compound 22, 2-({[(2S)-6-{[(tert-butoxy)carbonyl]amino}-1-hydroxyhexan-2-yl]amino}methyl)pyri-dine-4-carboxylic acid] | 250 to 2500 | < 250 | < 250 |  | > 2500
6 | CCN(CC)C(=O)CCN(CC(N)=O)C(C)c1cc(C(=O)O)ccn1 (stereo not drawn) [Compound 31, 2-{1-[(carbamoylmethyl)[2-(diethylcarbamoyl)ethyl]amino]ethyl}pyridine-4-carboxylic acid] | > 2500 | > 2500 |  | > 2500 | 
7 | CCN(CC)C(=O)CCN(CCC(=O)N(CC)CC)Cc1cc(C(=O)O)ccn1 [Compound 32, 2-({bis[2-(diethylcarbamoyl)ethyl]amino}methyl)pyri-dine-4-carboxylic acid] | > 2500 | 250 to 2500 |  | > 2500 | 
8 | O=C(O)c1cc(CNCC(=O)N2CCCCC2)ncn1 [Compound 35, 6-({[2-oxo-2-(piperidin-1-yl)ethyl]amino}methyl) pyrimidine-4-carboxylic acid] | 250 to 2500 | 250 to 2500 |  | 250 to 2500 | > 2500
9 | CC(NCc1nccs1)c1cc(C(=O)O)ccn1 (stereo not drawn) [Compound 41, 2-{1-[(1,3-thiazol-2-ylmethyl)amino]ethyl} pyridine-4-carboxylic acid] | 250 to 2500 | 250 to 2500 | 250 to 2500 |  | 
10 | CCN(CC)C(=O)CC(C)NCc1cc(C(=O)O)ccn1 (stereo not drawn) [Compound 43, 2-({[1-(diethylcarbamoyl)propan-2-yl]amino}methyl)pyri-dine-4-carboxylic acid] | > 2500 | 250 to 2500 |  | 250 to 2500 | 
11 | CC(NCC(=O)N1CCCCC1)c1cc(C(=O)O)ccn1 (stereo not drawn) [Compound 48, 2-(1-{[2-oxo-2-(piperidin-1-yl)ethyl]amino}ethyl) pyridine-4-carboxylic acid] | 250 to 2500 | 250 to 2500 | 250 to 2500 |  | 
12 | CCNC(=O)C[C@H]1CCN(Cc2cc(C(=O)O)ccn2)C1 [Compound 73, 2-{[(3R)-3-[(ethylcarbamoyl)methyl]pyrrolidin-1-yl]methyl}pyridine-4-carboxylic acid] | > 2500 | 250 to 2500 |  | 250 to 2500 | 
13 | O=C(O)c1ccnc(CNCc2cn(Cc3ccc(F)cc3)c3ccc(F)cc23)c1 [Compound 86, 2-{[({5-fluoro-1-[(4-fluorophenyl)methyl]-1H-indol-3-yl}methyl)amino]methyl}pyridine-4-carboxylic acid] | > 2500 | 250 to 2500 |  |  | > 2500
14 | C=CCc1cnc2c(c1)CCC2NCc1cc(C(=O)O)ccn1 (stereo not drawn) [Compound 95, 2-({[3-(prop-2-en-1-yl)-5H,6H,7H-cyclopenta[b]pyridin-7-yl]amino}methyl)pyri-dine-4-carboxylic acid] | 250 to 2500 | < 250 |  | < 250 | 
15 | O=C(O)c1ccnc(CNC2CCc3cccnc32)c1 (stereo not drawn) [Compound 98, 2-[({5H,6H,7H-cyclopenta[b]pyridin-7-yl}amino)methyl]pyri-dine-4-carboxylic acid] | 250 to 2500 | 250 to 2500 | < 250 |  | 
16 | CC(C)c1ccnc2c1CCC2NCc1cc(C(=O)O)ccn1 (stereo not drawn) [Compound 99, 2-({[4-(propan-2-yl)-5H,6H,7H-cyclopenta[b]pyridin-7-yl]amino}methyl)pyri-dine-4-carboxylic acid] | 250 to 2500 | < 250 |  |  | > 2500
17 | COc1ccnc2c1CCC2NCc1cc(C(=O)O)ccn1 (stereo not drawn) [Compound 101, 2-[({4-methoxy-5H,6H,7H-cyclopenta[b]pyridin-7-yl}amino)methyl]pyri-dine-4-carboxylic acid] | 250 to 2500 | < 250 | < 250 |  | 
18 | O=C(O)c1ccnc(CNC2CCc3cc(Br)cnc32)c1 (stereo not drawn) [Compound 103, 2-[({3-bromo-5H,6H,7H-cyclopenta[b]pyridin-7-yl}amino)methyl]pyri-dine-4-carboxylic acid] | 250 to 2500 | < 250 |  | < 250 | > 2500
19 | CCN1CC[C@H](CNCc2cc(C(=O)O)ccn2)C1=O [Compound 106, 2-[({[(3R)-1-ethyl-2-oxopyrrolidin-3-yl]methyl}amino)methyl]pyridine-4-carboxylic acid] | < 250 | < 250 |  |  | > 2500
